Test results from patent US6346514B1, “Pharmaceutical lysine-containing polypeptide compositions and methods of use thereof” (priority 1991, dated 2002).

What was measured:
[1] = tested on: blood lymphoid cells and immune organs after irradiation; test: Effect on immune system of irradiated guinea pigs; format: in vivo
Method: Twenty-two male guinea pigs were used in the following test.
Guinea pigs were exposed to irradiation in a total. does 1Gy.target-skin distance—70 cm; time of exposure—2′48″ Device: 180 kV; 15 mA; filter 0.5 Cu Treatment: i.m. single daily 1 microg. HM897 per kg for 5 days.
Treatment of controls: normal saline 0.5 ml i.m. single daily for 5 days.
Leukocyte and lymphocyte levels were measured in peripheral blood on the 7th, 14th, 21st, 36th and 44th day after irradiation.
In a second test 40 male guinea pigs were used, and the same regimen was followed.
There were two controls—irradiated and non-irradiated. Parameters were evaluated on the 8th and 21st days after irradiation. Tested parameters: clinical blood examination, non-specific resistance by lysosomal cationic test; “active” T-lymphocytes and total T-lymphocytes (E-RFC), B-lymphocytes (EAC-RFC) were measured in blood, thymus, lymph nodes, spleen and red bone marrow. Blood lymphocyte functional activity was evaluated by leukocyte migration inhibition (LMI) with ConA. Histological examinations of thymus, spleen, lymph nodes, bone marrow and adrenals were carried out.

[2] = tested on: guinea-pig myelokaryocytes; test: Colony-forming activity of macrophage precursors; format: cell-based; details: tested 1.0 to 0.0000001 microg/ml
Method: This test is designed to study macrophage precursors. Cultured cells used were guinea-pig myelokaryocytes. HM897 was added to cell culture in concentrations 1.0, 0.001, 0.00001 and 0.0000001 microg/ml.

[3] = tested on: hemolytic anemia induced by phenylhydrazine hydrochloride; test: Erythropoietic effect in hemolytic phenylhydrazine-induced anemia; format: in vivo, mice; details: 3rd day of administration
Method: This test was designed to study posthemorrhagic anemia (acute blood loss caused by taking blood from retroorbital sinus), and hemolytic anemia induced by phenylhydrazine hydrochloride (120 mg active ingredients/kg 30 Balb/c-mice and 30 CBA-mice). HM897 was injected intraperitoneally in doses of 100 and 150 microg per kg, 3 hours and 1 day after intervention modelling anemia, for 5 days. Tester parameters: RBC, leukocytes, reticulocytes, Hb, Hct

[4] = tested on: lymphoid cells in blood, thymus, lymph nodes, spleen and red bone marrow; test: Effect on immune system of healthy guinea pigs; format: in vivo
Method: Forty male guinea pigs were used in the following test. Most of the animals were treated daily with a single dose (i.m.) of Thr-Ala-Glu-Glu-Lys (SEQ ID NO:34) (HM897) […] for five days. Control animals were treated with single daily doses of 0.5 ml (i.m.) of normal saline.
Tested parameters: clinical blood examination, non-specific resistance by lysosomal cationic test; “active” T-lymphocytes and total T-lymphocytes (E-RFC), B-lymphocytes (EAC-RFC) were measured in blood, thymus, lymph nodes, spleen and red bone marrow. […] Blood lymphocyte functional activity was evaluated by leukocyte migration inhibition (LMI) with ConA. Histological examinations of thymus, spleen, lymph nodes, bone marrow and adrenals were carried out. All of these indicia were measured on 10th and 20th days after onset of the treatment.

B-lymphocytes = test: Ig-receptor expression on B-lymphocytes of patients with secondary immunodeficiency; format: cell-based, human; details: concentration 1 microg/ml
Method: The number of cells carrying Ig-receptors before and after incubation with the peptide has been measured (by means for FITC-labelled sera against human Ig).

Substance: Thr-Ala-Glu-Glu-Lys (TAEEK) [HM897]
- leukocyte and lymphocyte levels in peripheral blood ([1]; irradiation 1 Gy, 1 microg per kg i.m. daily for 5 days, days 7-44): restoration of leukocyte and lymphocyte levels
- peripheral blood lymphocytes and neutrophil functional activity ([1]; second test, irradiated animals): restored peripheral blood lymphocytes and neutrophil functional activity
- T-lymphocyte maturation and migration ([1]; second test, irradiated animals, early terms of observation): accelerates T-lymphocyte maturation and their migration to peripheral immune organs
- proliferation and differentiation in organs of the immune system ([1]; second test, irradiated animals, later stage of the study): enhancement of proliferation and differentiation in both central and peripheral organs of the immune system
- concentration from which macrophage precursors colony-forming activity is stimulated [2]: ≥ 0.0000001 µg/mL
- erythrocytes [3]: 7.2 mln/ml
- lymphocyte stimulation ([4]; 10th day): predominant T-lymphocyte stimulation
- mitotic activity in lymph nodes, spleen and bone marrow ([4]; 10th day after onset of administration): increased level of mitotic activity
- lymphocyte stimulation ([4]; 20th day): both T- and B-lymphocytes
- lymphoid cells proliferation and differentiation in thymus and bone marrow ([4]; healthy guinea pigs, i.m. single daily dose for five days): stimulates lymphoid cells proliferation and differentiation in thymus and bone marrow
- cells carrying Ig-receptors of different types (B-lymphocytes): significant increase
